Reference: the OligoGym collection
Several values for one entry are separate records, joined by “and”; a condition that tells them apart may be missing. Equal values may be shown once. After the bases stand the sugars from the 5' end (letter, count) and the backbone: PS all phosphorothioate, else s phosphorothioate and o phosphodiester by linkage. Methylation of C is not given here. l = locked nucleic acid (LNA); d = 2'-deoxy (DNA)

How the values were obtained:
ANGPTL2 = settings: ASO
MYH7 = settings: ASO, CC-2580, 5 µM

Sequence | target mRNA inhibition (ANGPTL2; 5 µM) | target mRNA inhibition (ANGPTL2; 25 µM) | target mRNA inhibition (MYH7)
GCAGCTCATTGTTGAGCA (sugars l1 d15 l2, PS) | -2.7% | -0.5% | –
GCATTCCTCAGACAAATC (sugars l2 d14 l2, PS) | 43.6% | 56.9% | –
GCTTGCGGATGATCTC (sugars l2 d12 l2, PS) | 38% | 70.9% | –
GTAGGTAGGCGAGGAG (sugars l2 d12 l2, PS) | 16.3% | -18.7% | –
GTGCCAAATCCTAGACA (sugars l2 d13 l2, PS) | 54.5% | 68.2% | –
GTGCTCTGTGAAGATTA (sugars l2 d11 l4, PS) | 66.6% | 81.3% | –
GTTCTCCAGGGAAGTGTA (sugars l1 d15 l2, PS) | 47.4% | 57.7% | –
GTTTCTGACAAAGCCCG (sugars l1 d13 l3, PS) | 79.6% | 84.3% | –
TAGCAGATGGGGCACAA (sugars l1 d12 l4, PS) | 22.9% | 12.4% | –
TCAGCTTGGCGATGATCT (sugars l2 d5 l1 d6 l4, PS) | – | – | 72% and 49%
TCAGCTTGGCGATGATCT (sugars l2 d8 l1 d3 l4, PS) | – | – | 48% and 46%
TCAGCTTGGCGATGATCT (sugars l2 d8 l1 d4 l3, PS) | – | – | 39% and 27%
TCAGCTTGGCGATGATCT (sugars l2 d10 l1 d1 l4, PS) | – | – | 46% and 45%
TCAGCTTGGCGATGATCT (sugars l2 d10 l1 d2 l3, PS) | – | – | 67% and 55%
TCAGCTTGGCGATGATCT (sugars l2 d13 l3, PS) | – | – | 64% and 40%
TCAGCTTGGCGATGATCT (sugars lddldddddddldlddll, PS) | – | – | 37% and 32%
TCAGCTTGGCGATGATCT (sugars lddldddddddlldldll, PS) | – | – | 14% and 8%
TCAGCTTGGCGATGATCT (sugars lddldlddddddldldll, PS) | – | – | 4% and -7%
TCAGCTTGGCGATGATCT (sugars lddldllddlddddddll, PS) | – | – | 16% and -2%

Sequence | target mRNA inhibition (ANGPTL2; 5 µM) | target mRNA inhibition (ANGPTL2; 25 µM) | target mRNA inhibition (MYH7)
TCAGCTTGGCGATGATCT (sugars lddldlldlddddddlll, PS) | – | – | 36% and 34%
TCAGCTTGGCGATGATCT (sugars ldlddlddddddldldll, PS) | – | – | -25% and -42%
TCAGCTTGGCGATGATCT (sugars ldldlldldddddddlll, PS) | – | – | 35% and 16%
TCAGCTTGGCGATGATCT (sugars llddlddddddddldlll, PS) | – | – | 51% and 37%
TCAGCTTGGCGATGATCT (sugars llddlddddddlddldll, PS) | – | – | -37% and -45%
TCAGTGGTGAGATGGGTCAC (sugars l1 d17 l2, PS) | 29.1% | 40.7% | –
TCTCCTAAGAGCAAAGCT (sugars l2 d14 l2, PS) | 37.2% | 52.9% | –
TGAATGGAAGATACAAAACT (sugars l4 d12 l4, PS) | 11.6% | 44.7% | –
TGATGATGCGGTTGTA (sugars l3 d11 l2, PS) | 73.8% | 85.9% | –
TGATGATGCGGTTGTAGGT (sugars l1 d16 l2, PS) | 45.5% | 63.9% | –
TGATGTGGTGAGACAGTA (sugars l2 d14 l2, PS) | 53.6% | 70.5% | –
TGGTTGATGATGCGGTT (sugars l2 d13 l2, PS) | 81.7% | 87.5% | –
TTACATGCCGCCAGAGGAA (sugars l1 d16 l2, PS) | 45.6% | 52.3% | –
TTATAAAGACAAGAGCCT (sugars l3 d12 l3, PS) | 34.5% | 47.3% | –
TTATAGGGTGGAATAAA (sugars l4 d9 l4, PS) | 18.2% | 26.9% | –
TTCTCCTAGAAAGCAGT (sugars l1 d12 l4, PS) | 43% | 61.9% | –
TTCTGGTAGTGGGCACAG (sugars l1 d15 l2, PS) | 36.8% | 37.1% | –
TTGATGATGCGGTTGTAGG (sugars l1 d16 l2, PS) | 44.8% | 55.9% | –
